# How the values were obtained:
# IKZF1 = molecular target: T1, IKZF1 (Homo sapiens, UniProt Q13422+Q96SW2); assay: HiBiT protein tagging assay, in vitro IKZF1 degradation (HEK293); format: cell-based; conditions: HEK293, 18-24 hr incubation, normalized to DMSO control; for Dmax: read-out: IKZF1 Dmax (maximum degradation at the highest concentration tested); for DC50: read-out: IKZF1 EC50
# T1 construct: expressed in transfected cells
# Procedure: (§1) In vitro degradation of IKZF1 and IKZF2 was measured using HiBiT protein tagging and detection technology (Promega).
# (§2) HiBiT technology (Promega) was used to develop the quantitative assays to measure the cellular IKZFs level by tagging an 11 amino acid HiBit peptides VSGWRLFKKIS (SEQ ID NO:1) to the protein of interest. Reporter plasmids were generated by fusing a linker sequence (GSSGGSSG; SEQ ID NO:2) followed by the HiBiT tag at the C terminus of IKZF1 and IKZF2. The fusion fragments were subsequently cloned into pcDNA5 pcDNA™5/FRT/TO plasmids (Thermo Fisher, cat #V652020) downstream of the Tetracycline operator. The resulting plasmids were co-transfected with pOG44 Flp-Recombinase Expression Vector (Thermo Fisher, cat #V600520) into Flp-In™ T-REx HEK293 line (Thermo Fisher, cat #R78077) and a stable cell pool was selected by adding 100 μg/ml of Hygromycin (Thermo Fisher, cat #10687010). The reporter cell enabled Tet-On inducible reporter expression from a single copy of the integrated gene.
# (§3) On Day 1, Cells were grown to ˜80% confluency in TC medium (DMEM Glutamax (Gibco10569), 10% Tet free FBS (Takara 631106), and PenStrep Glutamin (Gibco 10378)) in tissue culture flasks. Doxycycline was then added to a final concentration of 1 μg/ml to induce reporter expression at 37° C. overnight.
# (§4) On Day 2, 125 nL of serially-diluted solution of testing compounds were dispensed into 384-well white solid assay plates via ECHO acoustic liquid handler. Cells were lifted by 0.25% Trypsin (Gibco 25200) then pelleted by centrifugation (Beckman Avanti J-E) at 500×g for 5 min. Cell pellets were resuspended in TC medium at the concentration of 3e5/mL and 25 μL of cell suspension were added into each well of compound-spotted plates. The plates were returned to a 37° C. incubator overnight (18-24 hr).
# (§5) On Day 3, assay plates were removed from the TC incubator and 25 μL of Nano-Glo lytic detection system (Promega, cat #N3030) was added to each well. Plates were incubated at r.t. for 3 min with shaking, and luminescence was read using an Envision reader (Perkin Elmer).
# (§6) All raw data was normalized to DMSO control (final concentration: 0.5%) wells as POC and plotted out for EC50 and Dmax (Maximum degradation at the highest concentration tested in the assay).
# IKZF2 = molecular target: T2, IKZF2 (Homo sapiens, UniProt Q96SW2+Q9UKS7); assay: HiBiT protein tagging assay, in vitro IKZF2 degradation (HEK293); format: cell-based; conditions: HEK293, 18-24 hr incubation, normalized to DMSO control; for Dmax: HEK293, HiBiT assay, read-out: IKZF2 Dmax (maximum degradation at the highest concentration tested); for DC50: read-out: IKZF2 EC50
# T2 construct: expressed in transfected cells
# Procedure: as §1, §2, §3, §4, §5, §6
# T2 sequence (Q9UKS7 1-500 isoform Q9UKS7-2): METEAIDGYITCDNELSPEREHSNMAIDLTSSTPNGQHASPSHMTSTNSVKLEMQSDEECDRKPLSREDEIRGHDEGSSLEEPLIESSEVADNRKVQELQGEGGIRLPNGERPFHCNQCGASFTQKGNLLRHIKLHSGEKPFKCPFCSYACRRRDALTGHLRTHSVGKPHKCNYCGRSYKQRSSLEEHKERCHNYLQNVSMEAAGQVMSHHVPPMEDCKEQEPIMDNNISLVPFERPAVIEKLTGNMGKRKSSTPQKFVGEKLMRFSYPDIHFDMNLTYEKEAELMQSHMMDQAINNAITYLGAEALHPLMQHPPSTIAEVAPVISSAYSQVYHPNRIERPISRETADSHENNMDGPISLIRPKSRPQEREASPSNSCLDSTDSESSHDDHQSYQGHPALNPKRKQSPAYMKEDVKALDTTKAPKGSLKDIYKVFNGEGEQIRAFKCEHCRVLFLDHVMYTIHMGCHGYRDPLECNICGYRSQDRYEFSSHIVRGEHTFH
# T2 sequence (Q96SW2 whole entry): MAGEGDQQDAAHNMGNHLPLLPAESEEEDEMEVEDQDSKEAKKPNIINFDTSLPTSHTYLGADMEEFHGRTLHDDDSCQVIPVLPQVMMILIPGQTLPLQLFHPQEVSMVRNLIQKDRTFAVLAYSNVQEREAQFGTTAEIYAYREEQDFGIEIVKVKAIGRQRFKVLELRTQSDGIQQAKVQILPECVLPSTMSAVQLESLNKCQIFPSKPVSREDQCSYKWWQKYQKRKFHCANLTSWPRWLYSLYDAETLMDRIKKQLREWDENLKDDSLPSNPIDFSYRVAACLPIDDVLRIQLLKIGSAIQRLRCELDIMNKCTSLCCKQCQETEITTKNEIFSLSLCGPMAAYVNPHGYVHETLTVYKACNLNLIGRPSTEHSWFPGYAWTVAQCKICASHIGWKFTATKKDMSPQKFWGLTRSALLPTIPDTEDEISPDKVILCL
# T2 sequence (Q16531 whole entry partner): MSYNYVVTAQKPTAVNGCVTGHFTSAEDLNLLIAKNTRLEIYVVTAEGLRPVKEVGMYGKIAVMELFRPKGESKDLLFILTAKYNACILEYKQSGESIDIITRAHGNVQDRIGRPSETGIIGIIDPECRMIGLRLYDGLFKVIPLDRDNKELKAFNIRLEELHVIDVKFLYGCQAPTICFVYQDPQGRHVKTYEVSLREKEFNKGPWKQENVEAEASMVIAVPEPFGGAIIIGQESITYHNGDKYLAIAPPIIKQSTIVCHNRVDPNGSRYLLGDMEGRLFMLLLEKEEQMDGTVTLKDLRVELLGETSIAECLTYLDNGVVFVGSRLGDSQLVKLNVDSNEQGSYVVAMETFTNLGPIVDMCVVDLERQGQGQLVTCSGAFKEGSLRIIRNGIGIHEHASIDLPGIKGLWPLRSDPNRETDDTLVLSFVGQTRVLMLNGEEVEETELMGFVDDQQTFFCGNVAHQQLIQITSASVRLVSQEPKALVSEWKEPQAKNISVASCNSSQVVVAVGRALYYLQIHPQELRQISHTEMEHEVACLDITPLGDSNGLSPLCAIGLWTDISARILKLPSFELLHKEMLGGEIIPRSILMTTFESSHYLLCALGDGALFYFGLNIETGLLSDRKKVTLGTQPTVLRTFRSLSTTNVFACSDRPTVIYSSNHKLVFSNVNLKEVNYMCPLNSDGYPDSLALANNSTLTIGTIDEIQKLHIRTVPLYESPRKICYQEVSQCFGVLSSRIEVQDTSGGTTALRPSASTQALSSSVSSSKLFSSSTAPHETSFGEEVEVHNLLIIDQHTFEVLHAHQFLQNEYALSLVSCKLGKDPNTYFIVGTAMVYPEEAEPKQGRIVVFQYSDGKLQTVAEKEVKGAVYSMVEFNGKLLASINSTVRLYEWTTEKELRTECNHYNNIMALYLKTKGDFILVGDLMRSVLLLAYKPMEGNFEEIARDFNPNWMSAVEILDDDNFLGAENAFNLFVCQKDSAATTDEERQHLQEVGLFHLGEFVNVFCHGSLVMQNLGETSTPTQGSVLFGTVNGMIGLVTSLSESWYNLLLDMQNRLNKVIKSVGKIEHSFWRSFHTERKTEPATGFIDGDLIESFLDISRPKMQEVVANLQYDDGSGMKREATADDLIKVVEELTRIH
# T1 sequence (Q13422 whole entry): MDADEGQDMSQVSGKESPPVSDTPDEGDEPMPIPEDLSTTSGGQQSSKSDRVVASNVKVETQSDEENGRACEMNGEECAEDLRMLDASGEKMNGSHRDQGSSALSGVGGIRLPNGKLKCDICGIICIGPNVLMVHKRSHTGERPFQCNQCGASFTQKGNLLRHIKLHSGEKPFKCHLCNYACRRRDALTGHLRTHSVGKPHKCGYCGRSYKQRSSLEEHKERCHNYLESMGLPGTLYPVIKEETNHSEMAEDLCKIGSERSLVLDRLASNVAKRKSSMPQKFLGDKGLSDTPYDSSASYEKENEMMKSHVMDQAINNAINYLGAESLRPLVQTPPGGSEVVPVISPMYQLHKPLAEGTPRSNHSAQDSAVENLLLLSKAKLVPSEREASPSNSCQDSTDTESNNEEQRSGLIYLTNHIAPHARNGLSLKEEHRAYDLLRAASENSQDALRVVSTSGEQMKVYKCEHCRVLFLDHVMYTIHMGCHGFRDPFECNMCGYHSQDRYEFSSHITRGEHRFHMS
# T1 sequence (Q96SW2 whole entry): as the sequence (Q96SW2 whole entry) above
# T1 sequence (Q16531 whole entry partner): as the sequence (Q16531 whole entry partner) above
SMILES,Dmax (IKZF1),DC50 (IKZF1),Dmax (IKZF2),DC50 (IKZF2; HiBiT assay),IKZF1 Dmax (maximum degradation at the highest concentration tested) (IKZF1),IKZF2 Dmax (maximum degradation at the highest concentration tested) (IKZF2; HiBiT assay)
O=C1CCC(N2Cc3cc(CNC4CCCC(Cn5ncc6ccccc65)C4)ccc3C2=O)C(=O)N1 (stereo not shown) [Example 122],97%,22 nM,96%,48 nM,,
O=C1CCC(N2Cc3cc(CNC4CC5CC(C5)C4)ccc3C2=O)C(=O)N1 (stereo not shown) [Example 74],53%,52 nM,82%,48 nM,,
CC1CCC(C)(NCc2ccc3c(c2)CN(C2CCC(=O)NC2=O)C3=O)CC1 (stereo not shown) [Example 147],28%,155 nM,87%,87 nM,,
O=C1CCC(N2Cc3cc(CN[C@@H]4CCC[C@H](O)C4)ccc3C2=O)C(=O)N1 (stereo partly shown) [Example 82],,> 10000 nM,71%,1300 nM,,
"C[C@]1(NCc2ccc3c(c2)CN(C2CCC(=O)NC2=O)C3=O)CCCN(Cc2ccccc2)C1 (stereo partly drawn) [Example 155, 3-(5-((((S)-1-benzyl-3-methylpiperidin-3-yl)amino)methyl)-1-oxoisoindolin-2-yl)piperidine-2,6-dione]",61%,122 nM,87%,106 nM,,
"O=C1CCC(N2Cc3cc(CN[C@H]4CCC[C@@H](Cc5ccccc5)C4)ccc3C2=O)C(=O)N1 (relative stereo) [Example 12, 3-(5-((((1,3-cis)-3-benzylcyclohexyl)amino)methyl)-1-oxoisoindolin-2-yl)piperidine-2,6-dione]",95%,3 nM,96%,10 nM,,
CC[C@H]1CCCC[C@H]1NCc1ccc2c(c1)CN(C1CCC(=O)NC1=O)C2=O (stereo partly shown) [Example 148],38%,119 nM,43%,177 nM,,
O=C1CCC(N2Cc3cc(CN[C@H]4CCCC[C@H]4OCc4ccccc4)ccc3C2=O)C(=O)N1 (stereo partly shown) [Example 120],97%,2 nM,97%,3 nM,,
"O=C1CCC(N2Cc3cc(CN[C@@H]4CCCN(Cc5ccncc5)C4)ccc3C2=O)C(=O)N1 (stereo partly drawn) [Example 125, 3-(1-oxo-5-((((R)-1-(pyridin-4-ylmethyl)piperidin-3-yl)amino)methyl)isoindolin-2-yl)piperidine-2,6-dione]",95%,124 nM,86%,427 nM,,
"O=C1CCC(N2Cc3cc(CN[C@@H]4CCCC[C@@H]4O)ccc3C2=O)C(=O)N1 (relative stereo) [Example 49, 3-(5-(((cis-2-Hydroxycyclohexyl)amino)methyl)-1-oxoisoindolin-2-yl)piperidine-2,6-dione]",38%,153 nM,70%,449 nM,,
O=C1CCC(N2Cc3cc(CN[C@@H]4CCCC[C@H]4OCc4ccccc4)ccc3C2=O)C(=O)N1 (stereo partly shown) [Example 126],53%,151 nM,93%,79 nM,,
O=C1CCC(N2Cc3cc(CNC4CCN(C(=O)c5ccccc5)CC4)ccc3C2=O)C(=O)N1 (stereo not shown) [Example 57],77%,246 nM,96%,1300 nM,,
O=C1CCC(N2Cc3cc(CNC4CCN(Cc5ccccc5)C(=O)C4)ccc3C2=O)C(=O)N1 (stereo not shown) [Example 62],,886 nM,,1700 nM,27%,27%
"COC[C@@H]1CCCC[C@@H]1NCc1ccc2c(c1)CN(C1CCC(=O)NC1=O)C2=O (stereo partly drawn) [Example 158, 3-(5-((((1S,2R)-2-(methoxymethyl)cyclohexyl)amino)methyl)-1-oxoisoindolin-2-yl)piperidine-2,6-dione]",85%,90 nM,93%,46 nM,,
"O=C1CCC(N2Cc3cc(CN[C@@H]4CCCC[C@@H]4CO)ccc3C2=O)C(=O)N1 (stereo partly drawn) [Example 34, 3-(5-((((1R,2S)-2-(hydroxymethyl)cyclohexyl)amino)methyl)-1-oxoisoindolin-2-yl)piperidine-2,6-dione]",20%,384 nM,70%,657 nM,,
O=C1CCC(N2Cc3cc(CN[C@H]4CCC[C@@H](Nc5ccccc5)C4)ccc3C2=O)C(=O)N1 (stereo partly shown) [Example 91],63%,116 nM,73%,333 nM,,
CO[C@H]1CC[C@@H](NCc2ccc3c(c2)CN(C2CCC(=O)NC2=O)C3=O)CC1 (stereo partly shown) [Example 86],73%,70 nM,83%,123 nM,,
"O=C1CCC(N2Cc3cc(CN[C@H]4CCCC[C@H]4CO)ccc3C2=O)C(=O)N1 (stereo partly drawn) [Example 39, 3-(5-((((1S,2R)-2-(hydroxymethyl)cyclohexyl)amino)methyl)-1-oxoisoindolin-2-yl)piperidine-2,6-dione]",,> 10000 nM,37%,4100 nM,,
"O=C1CCC(N2Cc3cc(CNC4CC5CNC4C5)ccc3C2=O)C(=O)N1 (stereo not drawn) [Example 98, 3-(5-((((1,4,6-cis)-2-azabicyclo[2.2.1]heptan-6-yl)amino)methyl)-1-oxoisoindolin-2-yl)piperidine-2,6-dione]",22%,1500 nM,39%,1800 nM,,
N#CC[C@H]1CC[C@H](NCc2ccc3c(c2)CN(C2CCC(=O)NC2=O)C3=O)CC1 (stereo partly shown) [Example 63],44%,609 nM,91%,361 nM,,
"C[C@@]1(NCc2ccc3c(c2)CN(C2CCC(=O)NC2=O)C3=O)CCCN(Cc2ccccc2)C1 (stereo partly drawn) [Example 156, 3-(5-((((R)-1-benzyl-3-methylpiperidin-3-yl)amino)methyl)-1-oxoisoindolin-2-yl)piperidine-2,6-dione]",92%,58 nM,96%,35 nM,,
"O=C1CCC(N2Cc3cc(CNC4CCCCC4)ccc3C2=O)C(=O)N1 (stereo not shown) [Example 5, 3-(5-((Cyclohexylamino)methyl)-1-oxoisoindolin-2-yl)piperidine-2,6-dione]",38%,123 nM,78%,118 nM,,
O=C1CCC(N2Cc3cc(CNC4CCCC(Cn5cccn5)C4)ccc3C2=O)C(=O)N1 (stereo not shown) [Example 121],93%,169 nM,92%,336 nM,,
"O=C1CCC(N2Cc3cc(CN[C@@H]4CCc5ccccc5C4)ccc3C2=O)C(=O)N1 (stereo partly drawn) [Example 14, 3-(1-oxo-5-((((R)-1,2,3,4-tetrahydronaphthalen-2-yl)amino)methyl)isoindolin-2-yl)piperidine-2,6-dione]",35%,23 nM,43%,48 nM,,
"O=C1CCC(N2Cc3cc(CN[C@@H]4CC5CCC4CC5)ccc3C2=O)C(=O)N1 (stereo partly drawn) [Example 94, 3-(5-((((R)-bicyclo[2.2.2]octan-2-yl)amino)methyl)-1-oxoisoindolin-2-yl)piperidine-2,6-dione]",,> 10000 nM,55%,178 nM,,
"O=C1CCC(N2Cc3cc(CN[C@@H]4C[C@@H]5CC[C@H]4C5)ccc3C2=O)C(=O)N1 (stereo partly drawn) [Example 71, 3-(5-((((1S,2R,4R)-bicyclo[2.2.1]heptan-2-yl)amino)methyl)-1-oxoisoindolin-2-yl)piperidine-2,6-dione]",33%,170 nM,36%,297 nM,,
"O=C1CCC(N2Cc3cc(CN[C@@H]4CCCN(Cc5ccccc5)C4)ccc3C2=O)C(=O)N1 (stereo partly drawn) [Example 20, 3-(5-((((R)-1-benzylpiperidin-3-yl)amino)methyl)-1-oxoisoindolin-2-yl)piperidine-2,6-dione]",95%,7 nM,97%,32 nM,,
"O=C1CCC(N2Cc3cc(CNCC4CCCc5ccccc54)ccc3C2=O)C(=O)N1 (stereo not shown) [Example 22, 3-(1-oxo-5-((((1,2,3,4-tetrahydronaphthalen-1-yl)methyl)amino)methyl)isoindolin-2-yl)piperidine-2,6-dione]",78%,25 nM,36%,110 nM,,

# Reference: US20240124412A1, “IKAROS ZINC FINGER FAMILY DEGRADERS AND USES THEREOF” (Gilead Sciences, Inc., priority 2021, published 2024)
